Reference: ChEMBL document CHEMBL4145649, “Identification of the 4-Position of 3-Alkynyl and 3-Heteroaromatic Substituted Pyridine Methanamines as a Key Modification Site Eliciting Increased Potency and Enhanced Selectivity for Cytochrome P-450 2A6 Inhibition” (J Med Chem, 2018)

Columns and labels:
[1] = Half life in human liver microsomes at 10 uM up to 2 hrs at 37 degC in presence of NADPH-regenerating system by UPLC/MS analysis
[2] = target: Cytochrome P450 2C19 (Homo sapiens, UniProt P33261); experiment: Inhibition of CYP2C19 in human liver microsomes using omeprazole as substrate preincubated for 5 mins followed by addition of NADPH-regenerating system and measured after 15 mins by UPLC-MS analysis
[3] = target: Cytochrome P450 3A4 (Homo sapiens, UniProt P08684); experiment: Inhibition of CYP3A4 in human liver microsomes using midazolam as substrate preincubated for 5 mins followed by addition of NADPH-regenerating system and measured after 15 mins by UPLC-MS analysis
[4] = target: Cytochrome P450 2C9 (Homo sapiens, UniProt P11712); experiment: Inhibition of CYP2C9 in human liver microsomes using diclofenac as substrate preincubated for 5 mins followed by addition of NADPH-regenerating system and measured after 15 mins by UPLC-MS analysis
[5] = target: T1, Cytochrome P450 2B6 (Homo sapiens, UniProt P20813); experiment: Inhibition of CYP2B6 in human liver microsomes using bupropion as substrate preincubated for 5 mins followed by addition of NADPH-regenerating system and measured after 15 mins by UPLC-MS analysis
T1 sequence (P20813 whole entry): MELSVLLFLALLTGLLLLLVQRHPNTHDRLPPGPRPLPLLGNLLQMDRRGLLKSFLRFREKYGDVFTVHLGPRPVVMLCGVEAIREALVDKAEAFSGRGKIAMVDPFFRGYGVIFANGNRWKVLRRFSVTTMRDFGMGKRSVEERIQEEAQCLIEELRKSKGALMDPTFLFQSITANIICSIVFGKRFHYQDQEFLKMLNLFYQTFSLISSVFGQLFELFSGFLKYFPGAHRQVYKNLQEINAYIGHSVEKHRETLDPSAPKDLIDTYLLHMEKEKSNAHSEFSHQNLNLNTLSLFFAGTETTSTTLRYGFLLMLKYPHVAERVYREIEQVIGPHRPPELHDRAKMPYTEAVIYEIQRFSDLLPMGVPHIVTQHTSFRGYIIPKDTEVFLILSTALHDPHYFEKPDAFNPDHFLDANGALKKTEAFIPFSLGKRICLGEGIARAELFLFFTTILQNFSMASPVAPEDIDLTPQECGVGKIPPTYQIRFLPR

[6] = target: T2, Cytochrome P450 2C8 (Homo sapiens, UniProt P10632); experiment: Inhibition of CYP2C8 in human liver microsomes using amodiaquine as substrate preincubated for 5 mins followed by addition of NADPH-regenerating system and measured after 15 mins by UPLC-MS analysis
T2 sequence (P10632 whole entry): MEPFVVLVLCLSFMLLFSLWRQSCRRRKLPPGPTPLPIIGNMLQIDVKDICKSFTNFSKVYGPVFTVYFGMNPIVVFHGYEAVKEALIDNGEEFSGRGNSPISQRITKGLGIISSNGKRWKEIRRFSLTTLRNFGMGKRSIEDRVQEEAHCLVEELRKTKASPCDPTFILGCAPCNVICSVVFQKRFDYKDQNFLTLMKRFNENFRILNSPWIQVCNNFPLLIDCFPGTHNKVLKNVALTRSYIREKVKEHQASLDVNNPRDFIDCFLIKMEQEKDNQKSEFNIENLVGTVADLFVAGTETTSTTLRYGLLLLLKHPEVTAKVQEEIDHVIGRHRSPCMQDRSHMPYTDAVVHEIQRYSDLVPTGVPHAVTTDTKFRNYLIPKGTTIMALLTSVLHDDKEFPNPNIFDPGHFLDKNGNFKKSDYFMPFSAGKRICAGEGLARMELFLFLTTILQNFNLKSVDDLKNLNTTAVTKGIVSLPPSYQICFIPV

[7] = target: T3, Cytochrome P450 1A2 (Homo sapiens, UniProt P05177); experiment: Inhibition of CYP1A2 in human liver microsomes using phenacetin as substrate preincubated for 5 mins followed by addition of NADPH-regenerating system and measured after 15 mins by UPLC-MS analysis
T3 sequence (P05177 whole entry): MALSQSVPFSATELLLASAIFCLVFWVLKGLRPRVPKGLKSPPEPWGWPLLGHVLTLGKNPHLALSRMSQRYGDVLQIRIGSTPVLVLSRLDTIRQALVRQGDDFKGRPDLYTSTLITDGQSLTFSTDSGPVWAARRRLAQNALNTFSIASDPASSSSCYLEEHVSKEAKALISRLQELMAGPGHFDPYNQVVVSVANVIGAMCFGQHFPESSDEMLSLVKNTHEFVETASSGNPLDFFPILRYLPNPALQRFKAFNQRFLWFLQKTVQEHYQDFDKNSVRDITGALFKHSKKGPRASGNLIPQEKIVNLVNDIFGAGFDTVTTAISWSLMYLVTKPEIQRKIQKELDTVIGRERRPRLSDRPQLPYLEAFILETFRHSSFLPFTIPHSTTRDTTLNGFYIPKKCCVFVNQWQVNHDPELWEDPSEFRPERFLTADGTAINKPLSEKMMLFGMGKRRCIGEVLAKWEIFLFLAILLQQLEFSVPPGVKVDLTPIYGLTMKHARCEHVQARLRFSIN

[8] = target: Cytochrome P450 2E1 (Homo sapiens, UniProt P05181); experiment: Inhibition of CYP2E1 in human liver microsomes using chlorzoxazone as substrate preincubated for 5 mins followed by addition of NADPH-regenerating system and measured after 15 mins by UPLC-MS analysis
[9] = target: Cytochrome P450 2D6 (Homo sapiens, UniProt P10635); experiment: Inhibition of CYP2D6 in human liver microsomes using dextromethorphan as substrate preincubated for 5 mins followed by addition of NADPH-regenerating system and measured after 15 mins by UPLC-MS analysis
[10] = target: T4, Cytochrome P450 2A6 (Homo sapiens, UniProt P11509); experiment: Inhibition of CYP2A6 in human liver microsomes using coumarin as substrate preincubated for 5 mins followed by addition of NADPH-regenerating system and measured after 15 mins by UPLC-MS analysis
T4 sequence (P11509 whole entry): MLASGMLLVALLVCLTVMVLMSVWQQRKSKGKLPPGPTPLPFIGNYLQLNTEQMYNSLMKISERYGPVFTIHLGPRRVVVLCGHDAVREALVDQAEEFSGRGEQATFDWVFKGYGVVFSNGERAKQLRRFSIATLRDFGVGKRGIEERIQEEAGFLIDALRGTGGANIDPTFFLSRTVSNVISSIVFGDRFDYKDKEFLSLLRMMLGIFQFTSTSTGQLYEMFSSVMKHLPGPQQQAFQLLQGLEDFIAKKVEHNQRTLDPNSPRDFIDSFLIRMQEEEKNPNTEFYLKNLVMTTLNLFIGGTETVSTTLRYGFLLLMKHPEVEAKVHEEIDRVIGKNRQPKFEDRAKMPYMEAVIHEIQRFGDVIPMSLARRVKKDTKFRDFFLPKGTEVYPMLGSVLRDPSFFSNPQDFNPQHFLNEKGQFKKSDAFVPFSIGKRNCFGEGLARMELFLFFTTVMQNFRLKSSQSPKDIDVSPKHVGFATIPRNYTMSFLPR

Chain of Cytochrome P450 2C9 (P11712 whole entry): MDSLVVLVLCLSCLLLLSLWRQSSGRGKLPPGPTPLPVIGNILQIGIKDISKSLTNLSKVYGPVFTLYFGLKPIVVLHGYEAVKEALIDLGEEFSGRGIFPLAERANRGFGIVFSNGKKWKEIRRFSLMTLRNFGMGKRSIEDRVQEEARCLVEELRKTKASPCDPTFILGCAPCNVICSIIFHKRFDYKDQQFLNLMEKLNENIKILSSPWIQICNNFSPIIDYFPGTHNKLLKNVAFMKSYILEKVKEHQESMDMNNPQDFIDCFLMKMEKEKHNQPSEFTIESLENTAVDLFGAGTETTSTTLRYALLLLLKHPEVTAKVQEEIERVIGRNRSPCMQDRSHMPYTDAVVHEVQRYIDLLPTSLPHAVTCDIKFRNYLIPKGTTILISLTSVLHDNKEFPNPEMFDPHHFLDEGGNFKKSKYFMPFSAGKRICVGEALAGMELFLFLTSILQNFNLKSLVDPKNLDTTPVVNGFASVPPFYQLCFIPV
Chain of Cytochrome P450 2E1 (P05181 whole entry): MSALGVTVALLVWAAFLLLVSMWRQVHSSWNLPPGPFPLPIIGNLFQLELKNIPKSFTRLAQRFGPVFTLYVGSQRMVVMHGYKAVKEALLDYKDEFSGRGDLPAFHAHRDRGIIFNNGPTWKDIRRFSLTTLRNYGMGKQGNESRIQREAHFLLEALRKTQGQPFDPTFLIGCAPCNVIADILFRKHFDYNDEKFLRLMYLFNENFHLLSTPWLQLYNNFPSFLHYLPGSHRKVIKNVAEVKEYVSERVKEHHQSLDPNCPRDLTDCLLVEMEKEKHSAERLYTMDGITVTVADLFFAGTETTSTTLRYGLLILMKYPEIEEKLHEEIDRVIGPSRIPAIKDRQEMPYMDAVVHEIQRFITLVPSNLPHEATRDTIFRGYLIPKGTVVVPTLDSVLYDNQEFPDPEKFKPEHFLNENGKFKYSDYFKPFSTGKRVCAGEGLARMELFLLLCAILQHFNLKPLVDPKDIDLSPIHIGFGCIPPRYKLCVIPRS
Chain of Cytochrome P450 3A4 (P08684 whole entry): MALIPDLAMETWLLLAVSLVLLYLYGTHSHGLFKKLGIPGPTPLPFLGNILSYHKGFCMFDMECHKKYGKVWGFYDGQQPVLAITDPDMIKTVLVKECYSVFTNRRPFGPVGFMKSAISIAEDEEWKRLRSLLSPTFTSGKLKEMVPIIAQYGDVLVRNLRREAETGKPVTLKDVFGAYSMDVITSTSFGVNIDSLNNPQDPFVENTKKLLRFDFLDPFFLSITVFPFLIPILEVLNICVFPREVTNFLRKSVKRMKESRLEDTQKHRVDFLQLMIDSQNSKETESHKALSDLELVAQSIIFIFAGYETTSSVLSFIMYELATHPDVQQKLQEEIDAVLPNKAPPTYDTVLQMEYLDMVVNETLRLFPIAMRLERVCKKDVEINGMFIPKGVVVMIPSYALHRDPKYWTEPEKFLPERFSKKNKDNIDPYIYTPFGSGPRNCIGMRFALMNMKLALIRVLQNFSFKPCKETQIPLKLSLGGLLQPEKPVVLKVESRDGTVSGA
Chain of Cytochrome P450 2C19 (P33261 whole entry): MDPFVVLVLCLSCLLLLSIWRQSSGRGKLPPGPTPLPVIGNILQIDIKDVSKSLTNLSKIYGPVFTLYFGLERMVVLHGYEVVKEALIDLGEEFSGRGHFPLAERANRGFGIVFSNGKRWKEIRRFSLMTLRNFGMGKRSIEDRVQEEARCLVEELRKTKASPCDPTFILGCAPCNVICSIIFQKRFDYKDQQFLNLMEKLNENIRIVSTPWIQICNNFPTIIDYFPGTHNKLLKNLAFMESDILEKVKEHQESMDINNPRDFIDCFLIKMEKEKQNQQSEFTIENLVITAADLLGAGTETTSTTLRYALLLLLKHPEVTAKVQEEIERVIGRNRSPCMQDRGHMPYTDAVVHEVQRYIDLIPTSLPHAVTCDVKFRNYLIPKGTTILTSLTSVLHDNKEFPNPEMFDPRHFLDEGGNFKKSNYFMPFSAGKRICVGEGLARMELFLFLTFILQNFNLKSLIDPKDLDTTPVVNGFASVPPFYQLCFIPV
Chain of Cytochrome P450 2D6 (P10635 whole entry): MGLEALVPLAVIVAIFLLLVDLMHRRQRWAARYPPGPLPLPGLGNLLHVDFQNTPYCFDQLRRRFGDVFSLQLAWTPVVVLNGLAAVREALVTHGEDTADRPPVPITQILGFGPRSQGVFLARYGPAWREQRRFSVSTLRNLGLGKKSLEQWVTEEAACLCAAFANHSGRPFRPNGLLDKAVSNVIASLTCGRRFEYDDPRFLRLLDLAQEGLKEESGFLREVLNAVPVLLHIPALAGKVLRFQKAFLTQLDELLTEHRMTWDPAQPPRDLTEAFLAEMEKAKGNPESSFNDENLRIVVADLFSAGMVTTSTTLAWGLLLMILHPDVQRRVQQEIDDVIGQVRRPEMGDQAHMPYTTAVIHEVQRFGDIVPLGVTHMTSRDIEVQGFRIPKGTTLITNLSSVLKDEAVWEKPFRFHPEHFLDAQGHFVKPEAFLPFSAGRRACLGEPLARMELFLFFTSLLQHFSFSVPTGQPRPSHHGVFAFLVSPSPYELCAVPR

SMILES | t1/2 [1] | IC50 [2] | IC50 [3] | IC50 [4] | IC50 [5] | IC50 [6] | IC50 [7] | IC50 [8] | IC50 [9] | IC50 [10]
Cl.Cl.Cl.Cl.NCc1ccc(-c2cnccc2-c2cncnc2)o1 | > 120 min | > 25 µM | > 25 µM | > 25 µM | > 25 µM | > 50 µM | 7.6 µM | > 50 µM |  | 
COc1ccncc1C#CCN |  | 9.3 µM | > 50 µM | 28 µM | 11 µM | > 50 µM | 25 µM | 18 µM | > 50 µM | 
Cc1ccncc1C#CCN.Cl.Cl | 8.4 min | 8 µM | 5.6 µM | 36 µM | 20 µM | 8.6 µM | 11 µM | 19 µM | 2.4 µM | 
Cc1cncc(C#CCN)c1 |  |  |  |  |  |  |  |  |  | > 10 µM
Cl.Cl.Cl.NCc1ccc(-c2cnccc2-c2ccncc2)s1 | 32 min |  | 214 µM |  | 3.5 µM | > 25 µM | 4.8 µM | 31 µM |  | 
CCc1ccncc1C#CCN.Cl.Cl | 9.8 min |  | > 50 µM |  | 19 µM | 25 µM | > 50 µM | 15 µM | 6.6 µM | 
NCC#Cc1cnccc1-c1ccco1 |  | 3.7 µM | 11 µM | 2.8 µM | 5 µM | 7.5 µM | 1.4 µM | 1.9 µM | 3.9 µM | 
Cl.Cl.Cl.NCC#Cc1cnccc1-c1ccncc1 | 36 min |  | > 25 µM |  | > 25 µM | > 50 µM | 21 µM | > 25 µM | 12 µM | 
NCC#Cc1cncnc1 |  |  |  |  |  |  |  |  |  | > 10 µM

Continued, in another order:

t1/2 [1] | IC50 [2] | IC50 [3] | IC50 [4] | IC50 [5] | IC50 [6] | IC50 [7] | IC50 [8] | IC50 [9] | SMILES | IC50 [10]
> 120 min |  | 39 µM |  | 40 µM | > 25 µM | 25 µM | > 50 µM |  | Cl.Cl.Cl.Cl.NCc1ccc(-c2cnccc2-c2cncnc2)s1 | 
 | 1.4 µM | 7 µM | 4.4 µM | 0.073 µM | 3.8 µM | 0.2 µM | 3.1 µM | > 50 µM | NCc1ccc(-c2cnccc2-c2ccco2)s1 | 
 |  | > 25 µM |  | > 25 µM | > 50 µM | > 25 µM | > 25 µM | > 25 µM | NCC#Cc1cnccc1-c1cncnc1 | 
> 120 min | 13 µM | 90 µM | 28 µM | 7.8 µM | > 25 µM | 4.4 µM | 31 µM |  | Cl.Cl.Cl.NCc1ccc(-c2cnccc2-c2cccnc2)o1 | 
